The source of these data is patent US9133228B2, “Guanidinyl-substituted polyamides useful for treating human papilloma virus” (Nanovir, LLC, priority 2011, dated 2015).

The subject of experiment [1] is sequence of HPV16 (365 bp: 7662-122). Description: DNase I footprinting experiment. Format: binding, Human papilloma virus. The following applies: polyamide 2 nM and 5 nM; DNA 200 pM; DMSO and CHAPS; 37° C. for 5-6 hrs. The procedure:
FIG. 9 illustrates a footprinting experiment of NV1087 on a sequence of HPV16 (365 bp: 7662-122). All reactions were carried out in presence of DMSO and CHAPS, and the final DNA concentration was 200 pM. The polyamide concentration varied (2 nM and 5 nM). Reactions were incubated with polyamide at 37° C. for 5-6 hrs.

Experiment [2] has as its system HPV18. Description: Inhibition of viral replication in cells that maintain HPV18 DNA, viral DNA quantified by real-time PCR. Format: cell-based, Human papilloma virus. The source says: (§1) Table 1a lists a number of exemplary polyamides synthesized in accordance with the present invention. The HPLC/MW values given in Table 1b were obtained using low resolution high pressure liquid chromatography/mass spectrometry (LR HPLC/MS), which provides moderate precision masses of single isotopomers rather than average molecular weights or exact masses. Table 2 presents a summary of measured IC50 values of certain of these polyamides against HPV16, HPV18 and HPV31. The IC50 is the concentration of compound required for 50% inhibition of viral replication in vitro. The polyamides were tested in cells that maintain HPV16, HPV18 or HPV31 DNA. Cells maintaining the selected HPV were cultured for 72 hours in the presence of the polyamide. Viral DNA was then quantified using real-time PCR and compared to vehicle (DMSO)-treated control cultures. […] Table 3 presents a summary of measured IC50 and IC90 values of certain of these polyamides against HPV16, HPV18 and HPV31.
On the technique in general: Quantitative PCR measures a nucleic acid by following its amplification.

The test system of experiment [3] is HPV16. Description: Inhibition of viral replication in cells that maintain HPV16 DNA, viral DNA quantified by real-time PCR. Format: cell-based, Human papilloma virus.
From the text: as §1

Experiment [4] concerns HPV31. Description: Inhibition of viral replication in cells that maintain HPV31 DNA, viral DNA quantified by real-time PCR. It counts as cell-based, Human papilloma virus.
From the text: as §1

Setting [5] is: cells maintaining HPV18 cultured 72 hours with polyamide, vs DMSO control, highest dose tested 10 μM.
[6] abbreviates: cells maintaining HPV16 cultured 72 hours with polyamide, vs DMSO control, highest dose tested 10 μM.
Setting [7] is: cells maintaining HPV31 cultured 72 hours with polyamide, vs DMSO control, highest dose tested 10 μM.

Consider `CN(CCCN)CCCNC(=O)CCNC(=O)c1cc(NC(=O)CCNC(=O)c2cc(NC(=O)c3cc(NC(=O)c4cc(NC(=O)CCNC(=O)c5cc(NC(=O)c6cc(NC(=O)CCNC(=O)c7cc(NC(=O)CCCNC(=O)c8nc(NC(=O)c9cc(NC(=O)CCNC(=O)c%10cc(NC(=O)c%11cc(NC(=O)CCNC(=O)c%12cc(NC(=O)c%13cc(NC(=O)c%14cc(N=C(N(C)C)N(C)C)cn%14C)cn%13C)cn%12C)cn%11C)cn%10C)cn9C)cn8C)cn7C)cn6C)cn5C)cn4C)cn3C)cn2C)cn1C.O=C(O)C(F)(F)F.O=C(O)C(F)(F)F.O=C(O)C(F)(F)F.O=C(O)C(F)(F)F` [NV1087, TMG-PyPyPyβPyPyβPyIm-γ-PyβPyPyβPyPyPyβPyβ-Ta•4TFA], for which the “protection of DNA from digestion by DNase I (decrease in peak heights)” value in experiment [1] is “protects the DNA from digestion by DNase I”. For the same compound, the results for the IC50 in experiment [2] (setting [5]), in experiment [3] (setting [6]) and in experiment [4] (setting [7]) were 0.024 µM, 0.031 µM and 0.016 µM, respectively.
In the case of `CN(C)CCCNC(=O)CCNC(=O)c1cc(NC(=O)CCNC(=O)c2cc(NC(=O)c3cc(NC(=O)c4cc(NC(=O)CCNC(=O)c5cc(NC(=O)c6cc(NC(=O)CCNC(=O)c7cc(NC(=O)CCCNC(=O)c8nc(NC(=O)c9cc(NC(=O)CCNC(=O)c%10cc(NC(=O)c%11cc(NC(=O)CCNC(=O)c%12cc(NC(=O)c%13cc(N=C(N(C)C)N(C)C)cn%13C)cn%12C)cn%11C)cn%10C)cn9C)cn8C)cn7C)cn6C)cn5C)cn4C)cn3C)cn2C)cn1C` [NV1089, TMG-PyPyβPyPyβPyIm-γ-PyβPyPyβPyPyPyβPyβ-Dp•3TFA], the IC50 was found to be 0.068 µM in experiment [2] (setting [5]), 0.068 µM in experiment [3] (setting [6]) and 0.046 µM in experiment [4] (setting [7]).
With `CN(CCCN)CCCNC(=O)CCNC(=O)c1cc(NC(=O)CCNC(=O)c2cc(NC(=O)c3cc(NC(=O)c4cc(NC(=O)CCNC(=O)c5cc(NC(=O)c6cc(NC(=O)CCNC(=O)c7cc(NC(=O)CCCNC(=O)c8nc(NC(=O)c9cc(NC(=O)CCNC(=O)c%10cc(NC(=O)c%11cc(NC(=O)CCNC(=O)c%12cc(NC(=O)c%13cc(N=C(N(C)C)N(C)C)cn%13C)cn%12C)cn%11C)cn%10C)cn9C)cn8C)cn7C)cn6C)cn5C)cn4C)cn3C)cn2C)cn1C` [NV1090, TMG-PyPyβPyPyβPyIm-γ-PyβPyPyβPyPyPyβPyβ-Ta•4TFA], the IC50 in experiment [2] (setting [5]) was determined as 0.053 µM; in experiment [3] (setting [6]) it was 0.051 µM; in experiment [4] (setting [7]) it was 0.022 µM.
Taken in the same sequence, the figures for `CN(CCCN)CCCNC(=O)CCNC(=O)c1cc(NC(=O)c2cc(NC(=O)c3cc(NC(=O)CCNC(=O)c4cc(NC(=O)c5cc(NC(=O)c6cc(NC(=O)CCCNC(=O)c7cc(NC(=O)c8cc(NC(=O)CCNC(=O)c9nc(NC(=O)c%10cc(N=C(N(C)C)N(C)C)cn%10C)cn9C)cn8C)cn7C)cn6C)cn5C)cn4C)cn3C)cn2C)cn1C` [NV1094, TMG-PyImβPyPy-γ-PyPyPyβPyPyPyβ-Ta•4TFA] were > 10 µM, > 10 µM and > 10 µM.
Regarding `CN(CCCN)CCCNC(=O)CCNC(=O)c1cc(NC(=O)CCNC(=O)c2cc(NC(=O)c3cc(NC(=O)c4cc(NC(=O)CCNC(=O)c5cc(NC(=O)c6cc(NC(=O)CCNC(=O)c7cc(NC(=O)[C@H](N)CCNC(=O)c8nc(NC(=O)c9cc(NC(=O)CCNC(=O)c%10cc(NC(=O)c%11cc(NC(=O)CCNC(=O)c%12cc(NC(=O)c%13cc(N=C(N(C)C)N(C)C)cn%13C)cn%12C)cn%11C)cn%10C)cn9C)cn8C)cn7C)cn6C)cn5C)cn4C)cn3C)cn2C)cn1C` [NV1096, TMG-PyPyβPyPyβPyIm-γNH2-PyβPyPyβPyPyPyβPβ-Ta•5TFA], the IC50 in experiment [2] (setting [5]) came to 0.036 µM; in experiment [3] (setting [6]), 0.024 µM; in experiment [4] (setting [7]), 0.035 µM.
For `CN(CCCN)CCCNC(=O)CCNC(=O)c1cc(NC(=O)CCNC(=O)c2cc(NC(=O)c3cc(NC(=O)c4cc(NC(=O)CCNC(=O)c5cc(NC(=O)c6cc(NC(=O)c7cc(NC(=O)CCCNC(=O)c8cc(NC(=O)CCNC(=O)c9cc(NC(=O)c%10cc(NC(=O)CCNC(=O)c%11cc(NC(=O)c%12cc(N=C(N(C)C)N(C)C)cn%12C)cn%11C)cn%10C)cn9C)cn8C)cn7C)cn6C)cn5C)cn4C)cn3C)cn2C)cn1C` [NV1097, TMG-PyPyβPyPyβPy-γ-PyPyPyβPyPyPyβPyβ-Ta•3TFA], the IC50 in experiment [2] (Table 3, 72 hours) amounted to 0.257 µM; in experiment [2] (setting [5]) it was 0.257 µM; in experiment [3] (Table 3, 72 hours), 0.07 µM; in experiment [3] (setting [6]), 0.07 µM; in experiment [4] (Table 3, 72 hours), 0.04 µM; in experiment [4] (setting [7]), 0.04 µM. Also, the IC90 in experiment [2] (Table 3, 72 hours) is > 10 µM; in experiment [3] (Table 3, 72 hours), 1.41 µM; in experiment [4] (Table 3, 72 hours) it was 10 µM.
Regarding `CN(CCCN)CCCNC(=O)CCNC(=O)c1cc(NC(=O)CCNC(=O)c2cc(NC(=O)c3cc(NC(=O)c4cc(NC(=O)CCNC(=O)c5cc(NC(=O)c6cc(NC(=O)c7cc(NC(=O)CCCNC(=O)c8cc(NC(=O)CCNC(=O)c9cc(NC(=O)c%10cc(NC(=O)CCNC(=O)c%11cc(NC(=O)c%12cc(NC(=O)c%13cc(N=C(N(C)C)N(C)C)cn%13C)cn%12C)cn%11C)cn%10C)cn9C)cn8C)cn7C)cn6C)cn5C)cn4C)cn3C)cn2C)cn1C` [NV1098, TMG-PyPyPyβPyPyβPy-γ-PyPyPyβPyPyPyβPyβ-Ta•3TFA], the half-inhibitory concentration (IC50) was determined as 0.017 µM in experiment [2] (Table 3, 72 hours); 0.017 µM in experiment [2] (setting [5]); 0.011 µM in experiment [3] (Table 3, 72 hours); 0.011 µM in experiment [3] (setting [6]); 0.024 µM in experiment [4] (Table 3, 72 hours); 0.024 µM in experiment [4] (setting [7]). In addition, the IC90 in experiment [2] (Table 3, 72 hours) is > 10 µM; in experiment [3] (Table 3, 72 hours) it was 1.36 µM; in experiment [4] (Table 3, 72 hours) it was 0.549 µM.
“TMG-PyPyβPyPyβ-γNH2-PyPyPyβPyPyPyβPyβ-Ta•4TFA [NV1095]”: the figures for the IC50 in experiment [2] (setting [5]), in experiment [3] (setting [6]) and in experiment [4] (setting [7]) were > 10 µM, 0.204 µM and 0.049 µM, respectively.

The term IC50 denotes the midpoint of a concentration-inhibition curve. A lower IC50 goes with higher potency. The IC90 is the concentration needed for an effect of 90%. Lower therefore signals an effect from little substance.
